Source: patent US7674795B2, “Fluorene derivatives, composition containing said derivatives and the use thereof” (Aventis Pharma SA, priority 2005, dated 2010)
pIC50: −log10 of the molar value. Where a name gives a salt, the structure may show the parent alone.

target: Hsp82 (Saccharomyces cerevisiae, UniProt P02829); assay: PK/LDH enzyme coupling test of the ATPase activity of Hsp82 (NADH decrease at 340 nm); format: biochemical; conditions: 1 μM Hsp82, 250 μM ATP, 37° C., pyruvate kinase/lactate dehydrogenase coupling, read-out: Hsp82 ATPase IC50
Sequence (P02829 whole entry): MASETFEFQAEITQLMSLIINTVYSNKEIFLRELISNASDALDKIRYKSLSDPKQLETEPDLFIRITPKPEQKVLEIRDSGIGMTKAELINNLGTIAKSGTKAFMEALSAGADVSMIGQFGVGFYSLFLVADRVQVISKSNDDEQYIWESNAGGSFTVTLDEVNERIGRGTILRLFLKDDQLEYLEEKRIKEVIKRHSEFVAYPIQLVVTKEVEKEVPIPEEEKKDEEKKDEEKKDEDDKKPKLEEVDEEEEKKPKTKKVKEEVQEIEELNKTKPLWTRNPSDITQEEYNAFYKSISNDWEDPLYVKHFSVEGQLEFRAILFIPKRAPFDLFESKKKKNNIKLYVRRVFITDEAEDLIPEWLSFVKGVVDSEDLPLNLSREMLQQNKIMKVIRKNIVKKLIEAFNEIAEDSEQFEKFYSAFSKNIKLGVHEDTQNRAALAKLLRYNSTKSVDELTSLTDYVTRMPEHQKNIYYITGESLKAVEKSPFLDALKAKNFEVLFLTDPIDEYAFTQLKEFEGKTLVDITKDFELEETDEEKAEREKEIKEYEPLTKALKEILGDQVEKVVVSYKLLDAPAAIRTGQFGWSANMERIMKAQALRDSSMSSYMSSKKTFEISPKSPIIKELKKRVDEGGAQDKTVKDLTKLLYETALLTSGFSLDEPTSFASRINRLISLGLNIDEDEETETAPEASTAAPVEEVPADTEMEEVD
Source text: The formation of ADP due to the ATPase activity of Hsp82 was utilized for developing another method of evaluating the enzymatic activity of this enzyme by application of an enzyme coupling system employing pyruvate kinase (PK) and lactate dehydrogenase (LDH). In this spectrophotometric method of the kinetic type, the PK catalyses the formation of ATP and of pyruvate starting from phosphoenol-pyruvate (PEP) and the ADP produced by HSP82. The pyruvate that formed, an LDH substrate, is then converted to lactate in the presence of NADH. In this case, the decrease in the concentration of NADH, measured by the decrease in absorbance at wavelength of 340 nm, is proportional to the concentration of ADP produced by HSP82. […] This mixture is preincubated at 37° C. for 30 min before adding 3.77 units of LDH and 3.77 units of PK. The reaction is started by adding the product to be evaluated, in variable concentrations, and of Hsp82, at a concentration of 1 μM. The enzymatic activity of Hsp82 is then measured continuously in a microplate reader at 37° C., at wavelength of 340 nm. The initial reaction rate is found by measuring the slope of the tangent at the origin of the recorded curve. The enzymatic activity is expressed as μM of ADP formed per minute. The effect of the various products tested is expressed as percentage of inhibition of ATPase activity, using the following codes: • A: […]

Compound	pIC50
NC(=O)NCC(=O)NC1c2ccccc2-c2c(-c3nc4cnccc4[nH]3)cccc21 (racemic) [Example 58, N-[4-(3H-imidazo[4,5-c]pyridin-2-yl)-9H-fluoren-9(R,S)-yl]-2-ureido-acetamide]	5.00 to 6.00
ON=C1c2ccccc2-c2c1cccc2-c1nc2ccccc2[nH]1 (racemic) [Example 68, 4-(1H-benzimidazol-2-yl)-fluoren-9-one oxime (Z,E)]	4.00 to 5.00
O=C(NC1c2ccccc2-c2c(-c3nc4ccncc4[nH]3)cccc21)c1cc[n+]([O-])cc1 (racemic) [Example 81, N-[4-(3H-imidazo[4,5-c]pyridin-2-yl)-9H-fluoren-9(R,S)-yl]-1-oxyisonicotinamide]	5.00 to 6.00
O=C(NC1c2ccccc2-c2c(-c3nc4ccncc4[nH]3)cccc21)c1cc(O)ncn1 (centres unmarked) [Example 93, [4-(3H-imidazo[4,5-c]pyridin-2-yl)-9H-fluoren-9-yl]amide of 6-hydroxypyrimidine-4-carboxylic acid]	5.00 to 6.00
O=C(NC1c2ccccc2-c2c(-c3nc4ccncc4[nH]3)cccc21)c1cccc2c1C=CCO2 (racemic) [Example 38, [4-(3H-imidazo[4,5-c]pyridin-2-yl)-9H-fluoren-9(R,S)-yl]amide trifluoroacetate of 2H-1-benzopyran-5-carboxylic acid]	5.00 to 6.00
OC=C1c2ccccc2-c2c1cccc2-c1nc2cnccc2[nH]1 (mixture of isomers) [Example 13, [4-(1H-imidazo[4,5-c]pyridin-2-yl)-fluoren-(9)-ylidene]-methanol, equimolecular mixture of the Z and E isomers]	4.00 to 5.00
Cc1cnccc1C(=O)NC1c2ccccc2-c2c(-c3nc4ccncc4[nH]3)cccc21 (racemic) [Example 96, N-[4-(3H-imidazo[4,5-c]pyridin-2-yl)-9H-fluoren-9(R,S)-yl]-3-methyl-isonicotinamide]	5.00 to 6.00
O=C(NC1c2ccccc2-c2c(-c3nc4cccnc4[nH]3)cccc21)c1ccncc1 (racemic) [Example 110, N-[4-(3H-imidazo[4,5-b]pyridin-2-yl)-9H-fluoren-9(R,S)-yl]-isonicotinamide]	4.00 to 5.00
Nc1cc(C(=O)NC2c3ccccc3-c3c(-c4nc5ccncc5[nH]4)cccc32)ccn1 (racemic) [Example 73, 2-amino-N-[4-(3H-imidazo[4,5-c]pyridin-2-yl)-9H-fluoren-9(R,S)-yl]-isonicotinamide]	> 6.00
NC(=O)NN=C1c2ccccc2-c2c1cccc2-c1nc2ccncc2[nH]1 [Example 30, trifluoroacetate of 4-(3H-imidazo[4,5-c]pyridin-2-yl)-fluoren-9-one semicarbazone (Z, E)]	4.00 to 5.00

Second part, the compound after the results:

pIC50	Compound
5.00 to 6.00	O=C(NC1c2ccccc2-c2c(-c3nc4ccncc4[nH]3)cccc21)c1ccncc1F (racemic) [Example 114, 3-fluoro-N-[4-(3H-imidazo[4,5-c]pyridin-2-yl)-9H-fluoren-9(R,S)-yl]-isonicotinamide]
5.00 to 6.00	NC(=O)c1cccc(C(=O)NC2c3ccccc3-c3c(-c4nc5ccncc5[nH]4)cccc32)c1 (racemic) [Example 126, N-[4-(3H-imidazo[4,5-c]pyridin-2-yl)-9H-fluoren-9(R,S)-yl]isophthalamide]
5.00 to 6.00	COCCCNC(=O)c1cc(C(=O)NC2c3ccccc3-c3c(-c4nc5ccncc5[nH]4)cccc32)ccn1 (racemic) [Example 112, 4-{[4-(3H-imidazo[4,5-c]pyridin-2-yl)-9H-fluoren-9(R,S)-yl]amide}-2-[(3-methoxy-propyl)-amide] of pyridine-2,4-dicarboxylic acid]
> 6.00	O=C(NC1c2ccccc2-c2c(-c3nc4ccncc4[nH]3)cccc21)c1c(Br)cnc2[nH]cnc12 (racemic) [Example 118, [4-(3H-imidazo[4,5-c]pyridin-2-yl)-9H-fluoren-9(R,S)-yl]amide of 6-bromo-3H-imidazo[4,5-b]pyridine-7-carboxylic acid]
